Data: patent US20080131534A1, “USE OF A PLANT EXTRACT OR PLANT JUICE” (Melbrosin International Produktions- und Vertriebs GesmbH & …, priority 2006, published 2008)
Where two headings read alike, the source gives them in different places.

Biological target: T1, PPAR-gamma (Homo sapiens, UniProt P37231)
T1 construct: purchased Invitrogen
T1 sequence (P37231 238-503 limits assumed): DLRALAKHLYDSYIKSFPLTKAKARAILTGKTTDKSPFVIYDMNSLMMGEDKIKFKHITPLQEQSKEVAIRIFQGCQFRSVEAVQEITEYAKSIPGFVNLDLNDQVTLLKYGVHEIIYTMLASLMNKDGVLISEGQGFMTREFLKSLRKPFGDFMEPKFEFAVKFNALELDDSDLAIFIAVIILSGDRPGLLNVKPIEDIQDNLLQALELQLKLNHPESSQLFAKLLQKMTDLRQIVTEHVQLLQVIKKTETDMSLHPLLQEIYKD
Assay: Polar Screen PPAR Competitive Assay (fluorescence polarization ligand binding)

[1] = Table 1, result in words, *tested to a concentration of 0.1 M
[2] = Table 1, tested substances, read-out: EC50
[3] = Table 3, active substances in Oregano, read-out: EC50

Method: The clear supernatant was further diluted by DMSO and then binding to PPARγwas tested by Peroxisome Proliferator-Activated Receptor-gamma Competitor Assay Kit, Green (Invitrogen, Carlsbad, Calif.).
PPAR-gamma-LBD and the fluorescent PPAR-gamma ligand (Fluormone™ PPAR Green) form a PPAR-gamma-LBD/Fluormone™ PPAR-gamma Green complex which has a high polarization value. If a competitor of PPAR-gamma is added the fluorescent ligand is displaced. This causes that the Fluoromone is free in solution and tumbles rapidly during its fluorescence lifetime which results in a low polarisation value.
1 μl of test compounds, which was dissolved and diluted in DMSO, was transferred into a microwell plate. Complete screening buffer was prepared by addition of 0.5 μl DTT (1M) to 1 ml PPAR Green Screening Buffer. 19 μl of this buffer was added to each well of microwell plate. […] 20 μl of this solution was added to each well. The plate is covered to protect the reagents from light and incubated for two hours at room temperature.
Data of the ligand binding assay were calculated in the following way: Polarization values were plotted against the concentration of test compound. The curve was fitted using a logistic dose-response model from Table Curve 2D software (Jandel Scientific). The used function was:

SMILES: CCCCCC(C)=O [2-Heptanon]
- EC50 [1]: does not bind*

SMILES: O=C(/C=C/c1ccccc1O)c1ccccc1 [2-Hydroxychalcone]
- EC50 [2]: 2.9 µM

SMILES: O=C(/C=C/c1ccccc1)c1ccccc1O [2′-Hydroxychalcone]
- EC50: 20 µM

SMILES: O=C(/C=C/c1ccccc1)c1ccccc1O [2′-OH-Chalcone]
- EC50 (Table 1, result in words): does not bind

SMILES: O=c1c(O)c(-c2ccccc2)oc2ccccc12 [3-Hydroxyflavon]
- EC50 [2]: > 500 µM

SMILES: O=c1cc(-c2ccc(O)cc2)oc2cc(OC3O[C@H](CO)[C@@H](O)[C@H](O)[C@H]3O)cc(O)c12 (stereo partly shown) [Apigenin-7Glycoside]
- EC50 [3]: > 500 µM

SMILES: O=c1cc(-c2ccc(O)cc2)oc2cc(O)cc(O)c12 [Apigenin]
- EC50 [2]: 104 µM
- EC50 [3]: 104 µM

SMILES: COc1ccc(-c2coc3cc(O)cc(O)c3c2=O)cc1 [Biochanin A]
- EC50 [2]: 20 µM
- EC50 [3]: 20 µM

SMILES: O=C(Nc1ccccc1)c1cc([N+](=O)[O-])ccc1Cl [CW9662, 2-Chloro-5-nitrobenanilide, reference compound]
- EC50 [2]: 0.0107 µM

SMILES: O=C(O)/C=C/c1ccc(O)c(O)c1 [Caffeic acid]
- EC50 [1]: does not bind*

SMILES: COc1cc(CNC(=O)CCCC/C=C/C(C)C)ccc1O [Capsaicin]
- EC50 [2]: > 500 µM

SMILES: O=CC=Cc1ccccc1 [Cinnamaldehyde]
- EC50 [2]: 10.4 µM

SMILES: O=c1oc2cc(O)ccc2c2oc3cc(O)ccc3c12 [Coumestrol]
- EC50 [2]: 8.5 µM

SMILES: COc1cc(/C=C/C(=O)CC(=O)/C=C/c2ccc(O)c(OC)c2)ccc1O [Curcumin]
- EC50 (Table 1, result in words): does not bind

SMILES: O=c1c(-c2ccc(O)cc2)coc2cc(O)ccc12 [Daidzein]
- EC50 [2]: 470 µM

SMILES: O=c1c(-c2ccc(O)cc2)coc2cc(O[C@@H]3O[C@H](CO)[C@@H](O)[C@H](O)[C@H]3O)ccc12 [Daidzin]
- EC50 [1]: does not bind*

SMILES: C=CCSCC=C [Diallylsulfide]
- EC50 [1]: does not bind*

SMILES: COc1ccc(-c2cc(=O)c3c(O)cc(O[C@@H]4O[C@H](CO[C@@H]5O[C@@H](C)[C@H](O)[C@@H](O)[C@H]5O)[C@@H](O)[C@H](O)[C@H]4O)cc3o2)cc1O [Diosmin]
- EC50 [1]: does not bind*

SMILES: OC[C@H](Cc1cccc(O)c1)[C@H](CO)Cc1cccc(O)c1 [Enterodiol]
- EC50 [2]: > 500 µM

SMILES: O=C1OC[C@H](Cc2cccc(O)c2)[C@H]1Cc1cccc(O)c1 [Enterolacton]
- EC50 [2]: > 500 µM

SMILES: Oc1cc(O)c2c(c1)O[C@H](c1ccc(O)c(O)c1)[C@H](O)C2 [Epicatechin]
- EC50 [2]: > 500 µM

SMILES: Oc1ccc([C@H]2COc3cc(O)ccc3C2)cc1 [Equol]
- EC50 [2]: 60 µM

SMILES: O=C1C[C@@H](c2ccc(O)c(O)c2)Oc2cc(O)cc(O)c21 [Eriodictyol]
- EC50 [2]: 66 µM
- EC50 [3]: 66 µM

SMILES: C[C@]12CC[C@@H]3c4ccc(O)cc4CC[C@H]3[C@@H]1CCC2=O [Estron]
- EC50 [1]: does not bind*

SMILES: CCOC(=O)C=Cc1ccccc1 [Ethylcinnamate]
- EC50 [2]: 2700 µM

SMILES: C=CCc1ccc(O)c(OC)c1 [Eugenol]
- EC50 [2]: 420 µM

SMILES: COc1cc(/C=C/C(=O)O)ccc1O [Ferrulic acid]
- EC50 (Table 1, result in words): does not bind

SMILES: COc1ccc(-c2coc3cc(O)ccc3c2=O)cc1 [Formononetin]
- EC50 [1]: does not bind*

SMILES: O=c1c(O)c(-c2ccccc2)oc2cc(O)cc(O)c12 [Galangin]
- EC50 [2]: 143 µM

SMILES: O=C(O)c1cc(O)c(O)c(O)c1 [Gallic acid]
- EC50: 128 µM

SMILES: O=c1c(-c2ccc(O)cc2)coc2cc(O)cc(O)c12 [Genistein]
- EC50: 22 µM

SMILES: O=c1c(-c2ccc(O)cc2)coc2cc(O[C@@H]3O[C@H](CO)[C@@H](O)[C@H](O)[C@H]3O)cc(O)c12 [Genistin]
- EC50 [1]: does not bind*

SMILES: COc1ccc([C@@H]2CC(=O)c3c(O)cc(O[C@@H]4O[C@H](CO[C@@H]5O[C@@H](C)[C@H](O)[C@@H](O)[C@H]5O)[C@@H](O)[C@H](O)[C@H]4O)cc3O2)cc1O [Hesperidin]
- EC50 [2]: > 500 µM

SMILES: O=c1c(O[C@@H]2O[C@H](CO)[C@H](O)[C@H](O)[C@H]2O)c(-c2ccc(O)c(O)c2)oc2cc(O)cc(O)c12 [Hyperoside]
- EC50 (Table 1, result in words): does not bind

SMILES: OCc1c[nH]c2ccccc12 [Indol-3-Carbinol]
- EC50 [2]: > 500 µM

SMILES: O=c1c(OC2OC(CO)C(O)C(O)C2O)c(-c2ccc(O)c(O)c2)oc2cc(O)cc(O)c12 (stereo not shown) [Isoquercetrin]
- EC50 [2]: 52 µM
- EC50 [3]: 53 µM

SMILES: O=c1c(O)c(-c2ccc(O)cc2)oc2cc(O)cc(O)c12 [Kaempferol]
- EC50 [2]: 467 µM
- EC50 [3]: 467 µM

SMILES: C=CC(C)(O)CCC=C(C)C (stereo not shown) [Linalool]
- EC50 [1]: does not bind*

SMILES: O=c1cc(-c2ccc(O)c(O)c2)oc2cc(O)cc(O)c12 [Luteolin]
- EC50 [2]: 4 µM
- EC50 [3]: 4 µM

SMILES: O=c1c(O)c(-c2cc(O)c(O)c(O)c2)oc2cc(O)cc(O)c12 [Myricetin]
- EC50 [2]: 53 µM

SMILES: O=C1C[C@@H](c2ccc(O)cc2)Oc2cc(O)cc(O)c21 [Narigenin]
- EC50 [3]: 81 µM

SMILES: CC(C(=O)c1ccc(O)cc1O)c1ccc(O)cc1 (stereo not shown) [ODMA, O-Desmethyl-angolenain]
- EC50 [2]: 67 µM

SMILES: C=CC(C)=CCC=C(C)C [Ocimene]
- EC50 [1]: does not bind*

SMILES: COc1ccc(-c2coc3cc(O[C@@H]4O[C@H](CO)[C@@H](O)[C@H](O)[C@H]4O)ccc3c2=O)cc1 [Ononin]
- EC50 [1]: does not bind*

SMILES: O=C(CCc1ccc(O)cc1)c1c(O)cc(O)cc1O [Phloretin]
- EC50 [2]: 20 µM

SMILES: O=C(CCc1ccc(O)cc1)c1c(O)cc(O)cc1O[C@@H]1O[C@H](CO)[C@@H](O)[C@H](O)[C@H]1O [Phloridzin]
- EC50 [2]: > 500 µM

SMILES: Oc1cc(O)c2c(c1)O[C@H](c1ccc(O)c(O)c1)[C@H](O)[C@H]2c1c(O)cc(O)c2c1O[C@H](c1ccc(O)c(O)c1)[C@H](O)C2 [Procyanidin B2]
- EC50 [1]: does not bind*

SMILES: O=C(O)c1ccc(O)c(O)c1 [Protocatechuic acid]
- EC50 [1]: does not bind*

SMILES: COc1cc(O)c2c(=O)c(-c3ccc(O)cc3)coc2c1 [Prunetin]
- EC50 [1]: does not bind*

SMILES: O=c1c(-c2ccc(O)cc2)coc2c([C@@H]3O[C@H](CO)[C@@H](O)[C@H](O)[C@H]3O)c(O)ccc12 [Puerarin]
- EC50 [1]: does not bind*

SMILES: O=c1c(O)c(-c2ccc(O)c(O)c2)oc2cc(O)cc(O)c12 [Quercetin]
- EC50 [2]: 2.6 µM
- EC50 [3]: 2.6 µM

SMILES: O=C(/C=C/c1ccc(O)c(O)c1)O[C@H](Cc1ccc(O)c(O)c1)C(=O)O [Rosmarinic acid]
- EC50 [2]: 7.8 µM
- EC50 [3]: 7.8 µM

SMILES: C=CCc1ccc2c(c1)OCO2 [Safrol]
- EC50: 2250 µM

SMILES: O=C(/C=C/c1ccc(O)c2c1[C@H](C(=O)O[C@H](Cc1ccc(O)c(O)c1)C(=O)O)[C@@H](c1ccc(O)c(O)c1)O2)O[C@H](Cc1ccc(O)c(O)c1)C(=O)O [Salvianolic acid B]
- EC50 [3]: 292 µM

SMILES: c1cc2c(cc1[C@H]1OC[C@H]3[C@@H]1CO[C@@H]3c1ccc3c(c1)OCO3)OCO2 [Sesamin]
- EC50 (Table 1, result in words): does not bind

SMILES: COc1ccc(-c2coc3cc(O[C@@H]4O[C@H](CO)[C@@H](O)[C@H](O)[C@H]4O)cc(O)c3c2=O)cc1 [Sissotrin]
- EC50 [1]: does not bind*

SMILES: O=C1c2c(O)cc(O)cc2O[C@H](c2ccc(O)c(O)c2)[C@H]1O [Taxifolin]
- EC50 [3]: 275 µM

SMILES: Cc1ccc(C(C)C)c(O)c1 [Thymol]
- EC50 (EC50, Table 1, tested substances): 695 µM
- EC50 (EC50, Table 3, active substances in Oregano): 695 µM

SMILES: C[C@H]1[C@H](C)CC[C@]2(C(=O)O)CC[C@]3(C)C(=CC[C@@H]4[C@@]5(C)CC[C@H](O)C(C)(C)[C@@H]5CC[C@]43C)[C@H]12 [Ursolsäure]
- EC50 [3]: > 500 µM

SMILES: COc1cc(C(=O)O)ccc1O [Vanillic acid]
- EC50 [3]: > 500 µM

SMILES: O=c1cc(-c2ccc(O)cc2)oc2c([C@@H]3O[C@H](CO)[C@@H](O)[C@H](O)[C@H]3O)c(O)cc(O)c12 [Vitexin]
- EC50 [3]: 156 µM

SMILES: O=C(O)/C=C/c1ccccc1O [o-Coumaric acid]
- EC50 [1]: does not bind*

SMILES: O=C(O)/C=C/c1ccc(O)cc1 [p-Coumaric acid]
- EC50 [2]: > 500 µM
- EC50 [3]: > 500 µM

SMILES: Cc1ccc(C(C)C)cc1 [p-Cymene]
- EC50 [1]: does not bind*

SMILES: C/C1=C\CC/C(C)=C/CC(C)(C)/C=C/C1 [α-Humulene]
- EC50 [1]: does not bind*

SMILES: C=C1CC/C=C(\C)CC[C@@H]2[C@@H]1CC2(C)C [β-Caryophyllene]
- EC50 [1]: does not bind*
